In the oligonucleotide strings, read from the 5' end, every base follows the letter of its sugar. An asterisk marks phosphorothioate; unmarked linkages are phosphodiester. Other units and linkages are bracketed, terminal groups are in braces. A string of capitals states the bases alone. d = 2'-deoxy (DNA); m = 2'-O-methyl
Molecular target: cGAS (Homo sapiens, UniProt Q8N884)
Assay: ISD70-driven IP-10 (and IFN-β) production in THP-1 cells, ELISA
Type: cell-based
Set-up: endogenous in cells; host or cells: THP-1 (undifferentiated)
Settings: ASO 100 nM; relative to ISD70 only, given as fraction

Sequence of cGAS (Q8N884 whole entry): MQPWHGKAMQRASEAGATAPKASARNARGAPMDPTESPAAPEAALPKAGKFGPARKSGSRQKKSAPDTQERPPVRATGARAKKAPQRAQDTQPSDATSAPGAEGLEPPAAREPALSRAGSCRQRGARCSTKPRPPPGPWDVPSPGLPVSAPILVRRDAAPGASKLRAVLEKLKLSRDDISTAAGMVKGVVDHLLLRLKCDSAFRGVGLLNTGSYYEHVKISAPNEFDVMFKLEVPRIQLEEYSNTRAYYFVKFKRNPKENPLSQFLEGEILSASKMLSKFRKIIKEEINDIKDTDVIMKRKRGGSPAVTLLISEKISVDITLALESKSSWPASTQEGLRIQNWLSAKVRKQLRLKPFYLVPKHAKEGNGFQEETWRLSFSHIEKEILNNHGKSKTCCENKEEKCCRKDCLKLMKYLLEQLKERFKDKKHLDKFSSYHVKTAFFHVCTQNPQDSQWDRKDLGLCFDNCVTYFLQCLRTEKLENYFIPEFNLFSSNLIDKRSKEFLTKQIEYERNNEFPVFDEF

**Q.** With “ACACTTCGTGGGGTCC (antisense; LNA-modified, pattern not given here) [HPRT LNA-665 V1]” as the substance, how does the “cGAS 100 nM (averaged IP-10 level relative to ISD70 condition)” value read?
**A.** 0.516

**Q.** How did the “cGAS 100 nM (averaged IP-10 level relative to ISD70 condition)” value turn out when “CAACACTTCGTGGGGT (antisense; LNA-modified, pattern not given here) [HPRT LNA-667 V1]” was run?
**A.** 0.675

**Q.** Which “cGAS 100 nM (averaged IP-10 level relative to ISD70 condition)” value does the source give for “CCAAGATCAGCAGTCT (antisense; LNA-modified, pattern not given here) [CTNN2B-2341 LNA KL]” here?
**A.** 0.356

**Q.** With “CCATCCATGAGGTCCT (antisense; LNA-modified, pattern not given here) [CTNN2B-2545 LNA V1]” as the substance, how does the “cGAS 100 nM (averaged IP-10 level relative to ISD70 condition)” value read?
**A.** 0.533

**Q.** “GATAGCACCTTCAGCA (antisense; LNA-modified, pattern not given here) [CTNN2B-1294 LNA KL]” was tested. Which “cGAS 100 nM (averaged IP-10 level relative to ISD70 condition)” value did it give?
**A.** 0.436

**Q.** “GCAGGCTCAGTGATGT (antisense; LNA-modified, pattern not given here) [CTNN2B-1642 LNA V1]” was tested. Which “cGAS 100 nM (averaged IP-10 level relative to ISD70 condition)” value did it give?
**A.** 0.458

**Q.** How did the “cGAS 100 nM (averaged IP-10 level relative to ISD70 condition)” value turn out when “GCATCCACCACGTCGT (antisense; LNA-modified, pattern not given here) [EGFR-3267 LNA V1]” was run?
**A.** 0.602

**Q.** For “GCCATCCACTTGATAG (antisense; LNA-modified, pattern not given here) [EGFR-2874 LNA V1]”, which “cGAS 100 nM (averaged IP-10 level relative to ISD70 condition)” value is on record?
**A.** 0.688

**Q.** With “GCCATGCTGGCTCGGA (antisense; LNA-modified, pattern not given here) [CAMSAP1-2584 LNA V1]” as the substance, how does the “cGAS 100 nM (averaged IP-10 level relative to ISD70 condition)” value read?
**A.** 0.599

**Q.** For “GCCATGTTTCTTCTTG (antisense; LNA-modified, pattern not given here) [MB21D1-1248 LNA KL]”, which “cGAS 100 nM (averaged IP-10 level relative to ISD70 condition)” value is on record?
**A.** 0.639

**Q.** How did the “cGAS 100 nM (averaged IP-10 level relative to ISD70 condition)” value turn out when “GGCTGGAATCCGAGTT (antisense; LNA-modified, pattern not given here) [EGFR-4705 LNA KL]” was run?
**A.** 0.592

**Q.** For “GGTTACGGCTCAGTAT (antisense; LNA-modified, pattern not given here) [CAMSAP1-4295 LNA KL]”, which “cGAS 100 nM (averaged IP-10 level relative to ISD70 condition)” value is on record?
**A.** 0.661

**Q.** “GTATCGAAAGAGTCTG (antisense; LNA-modified, pattern not given here) [EGFR-3908 LNA KL]” was tested. Which “cGAS 100 nM (averaged IP-10 level relative to ISD70 condition)” value did it give?
**A.** 0.609

**Q.** With “GTCCCCTGTTGACTGG (antisense; LNA-modified, pattern not given here) [HPRT LNA-489 KL]” as the substance, how does the “cGAS 100 nM (averaged IP-10 level relative to ISD70 condition)” value read?
**A.** 0.606

**Q.** How did the “cGAS 100 nM (averaged IP-10 level relative to ISD70 condition)” value turn out when “GTCTTGGCTTCGTGGA (antisense; LNA-modified, pattern not given here) [MB21D1-522 LNA V1]” was run?
**A.** 0.620

**Q.** For “GTGTCTGGAAGCTTCC (antisense; LNA-modified, pattern not given here) [CTNN2B-809 LNA V1]”, which “cGAS 100 nM (averaged IP-10 level relative to ISD70 condition)” value is on record?
**A.** 0.482

**Q.** For “GTTCAGTCCTGTCCAT (antisense; LNA-modified, pattern not given here) [HPRT LNA-292 V1]”, which “cGAS 100 nM (averaged IP-10 level relative to ISD70 condition)” value is on record?
**A.** 0.563

**Q.** With “TCCAACACTTCGTGGG (antisense; LNA-modified, pattern not given here) [HPRT LNA-669 V1]” as the substance, how does the “cGAS 100 nM (averaged IP-10 level relative to ISD70 condition)” value read?
**A.** 0.539

**Q.** How did the “cGAS 100 nM (averaged IP-10 level relative to ISD70 condition)” value turn out when “TCGTAGTTGCTTCCTA (antisense; LNA-modified, pattern not given here) [MB21D1-1181 LNA KL]” was run?
**A.** 0.610

**Q.** For “TGATGGCCTCCCATCT (antisense; LNA-modified, pattern not given here) [HPRT LNA-332 V1]”, which “cGAS 100 nM (averaged IP-10 level relative to ISD70 condition)” value is on record?
**A.** 0.650

**Q.** For “TGCACACTTCGTACCC (antisense; LNA-modified, pattern not given here) [CAMSAP1-4916 LNA V1]”, which “cGAS 100 nM (averaged IP-10 level relative to ISD70 condition)” value is on record?
**A.** 0.572

**Q.** With “TGGCCTCCCATCTCCT (antisense; LNA-modified, pattern not given here) [HPRT LNA-329 V1]” as the substance, how does the “cGAS 100 nM (averaged IP-10 level relative to ISD70 condition)” value read?
**A.** 0.494

**Q.** Which “cGAS 100 nM (averaged IP-10 level relative to ISD70 condition)” value does the source give for “TGTGATGGCCTCCCAT (antisense; LNA-modified, pattern not given here) [HPRT LNA-334 V1]” here?
**A.** 0.557

**Q.** How did the “cGAS 100 nM (averaged IP-10 level relative to ISD70 condition)” value turn out when “TTCGTGGGGTCCTTTT (antisense; LNA-modified, pattern not given here) [HPRT LNA-661 V1]” was run?
**A.** 0.520

**Q.** With “TTTTGGCTGGGATCAA (antisense; LNA-modified, pattern not given here) [CAMSAP1-4697 LNA KL]” as the substance, how does the “cGAS 100 nM (averaged IP-10 level relative to ISD70 condition)” value read?
**A.** 0.590

Same assay, conditions: THP-1; 125 nM oligonucleotide 6 h, ISD70 overnight

**Q.** For “T*T*A* G*G*G* T*T*A* G*G*G* T*T*A* G*G*G* T*T*A* G*G*G [A151, reference compound]”, which “IFN-β production after ISD70 transfection: reduction” value is on record?
**A.** ~50%

**Q.** For “mG*mC*mG*mG*mU*A*T*C*C*A*T*G*T*C*C*mC*mA*mG*mG*mC (mG*mC*mG*mG*mU*dA*dT*dC*dC*dA*dT*dG*dT*dC*dC*mC*mA*mG*mG*mC; antisense) [C2-Mut1]”, which “IFN-β production after ISD70 transfection: reduction” value is on record?
**A.** blocked

Same assay, conditions: THP-1; 300 nM LNA or 200 nM MOE ASO ~30 min; ISD70 overnight (FIG. 21, 23)

**Q.** “GTGTCTGGAAGCTTCC (antisense; LNA-modified, pattern not given here) [CTNN2B-809 LNA V1]” was tested. Which “inhibition of cGAS in THP-1, LNA and MOE ASO validation (in words)” value did it give?
**A.** potently inhibited signalling

Same assay, conditions: THP-1; 2′OMe or PS oligos, 100-250 nM, pre-treatment as in figure legends; ISD70 2.5 μg/ml

**Q.** “mC*mG*mU*T*T*C*C*C*C*C*C*C*C*C*C*C*C*C*C*C (CGUTTCCCCCCCCCCCCCCC; antisense; sugars from the 5' end m3 d17, all phosphorothioate, methylation of C not given here) [[C2]Mut1-v3-dC]” was tested. Which “inhibition of ISD70-driven IP-10 production (in words)” value did it give?
**A.** lacked significant inhibitory activity

**Q.** How did the “inhibition of ISD70-driven IP-10 production (in words)” value turn out when “mG*mC*mG*mG*mU*A*T*C*C*A*T*G*T*C*C*mC*mA*mG*mG*mC (mG*mC*mG*mG*mU*dA*dT*dC*dC*dA*dT*dG*dT*dC*dC*mC*mA*mG*mG*mC; antisense) [C2-Mut1]” was run?
**A.** most inhibitory sequence of ISD70 sensing

**Q.** How did the “inhibition of ISD70-driven IP-10 production (in words)” value turn out when “mG*mG*mU*A*T*C*C*C*C*C*C*C*C*C*C*C*C*C*C*C (GGUATCCCCCCCCCCCCCCC; antisense; sugars from the 5' end m3 d17, all phosphorothioate, methylation of C not given here) [[C2]Mut1-dC]” was run?
**A.** significantly more inhibitory than its precursor dC20

Same assay, conditions: THP-1; 6 h pre-treatment, ISD70 2.5 μg/ml overnight (FIG. 3A); listed as C2-Mutl; read-out: IC50 (IP-10 production after ISD70 transfection)

**Q.** Which IC50 does the source give for “mG*mC*mG*mG*mU*A*T*C*C*A*T*G*T*C*C*mC*mA*mG*mG*mC (mG*mC*mG*mG*mU*dA*dT*dC*dC*dA*dT*dG*dT*dC*dC*mC*mA*mG*mG*mC; antisense) [C2-Mut1]” here?
**A.** ~56 nM

Same assay, conditions: THP-1; 6 h pre-treatment, ISD70 2.5 μg/ml overnight (FIG. 3A); read-out: IC50 (IP-10 production after ISD70 transfection)

**Q.** Which IC50 does the source give for “T*T*A* G*G*G* T*T*A* G*G*G* T*T*A* G*G*G* T*T*A* G*G*G [A151, reference compound]” here?
**A.** 165 nM

**Q.** “mG*mC*mG*mG*mU*A*T*C*C*A*T*G*T*C*C*mC*mA*mG*mG*mC (mG*mC*mG*mG*mU*dA*dT*dC*dC*dA*dT*dG*dT*dC*dC*mC*mA*mG*mG*mC; antisense) [C2-Mut1]” was tested. Which IC50 did it give?
**A.** 56 nM
